Residue numbers refer to the chain shown, from its start. Read-outs that look alike come from different tables or passages of the source.
What was measured:
FLT3 wild type = target: T1, FLT3 wild type (Homo sapiens, UniProt P36888); assay: Kinase HotSpot radiometric kinase assay (Reaction Biology); assay type: biochemical; conditions: Table 1; read-out: FLT3 IC50
T1 construct: purchased Reaction Biology Corp. (Kinase HotSpot service)
T1 sequence (P36888 27-993): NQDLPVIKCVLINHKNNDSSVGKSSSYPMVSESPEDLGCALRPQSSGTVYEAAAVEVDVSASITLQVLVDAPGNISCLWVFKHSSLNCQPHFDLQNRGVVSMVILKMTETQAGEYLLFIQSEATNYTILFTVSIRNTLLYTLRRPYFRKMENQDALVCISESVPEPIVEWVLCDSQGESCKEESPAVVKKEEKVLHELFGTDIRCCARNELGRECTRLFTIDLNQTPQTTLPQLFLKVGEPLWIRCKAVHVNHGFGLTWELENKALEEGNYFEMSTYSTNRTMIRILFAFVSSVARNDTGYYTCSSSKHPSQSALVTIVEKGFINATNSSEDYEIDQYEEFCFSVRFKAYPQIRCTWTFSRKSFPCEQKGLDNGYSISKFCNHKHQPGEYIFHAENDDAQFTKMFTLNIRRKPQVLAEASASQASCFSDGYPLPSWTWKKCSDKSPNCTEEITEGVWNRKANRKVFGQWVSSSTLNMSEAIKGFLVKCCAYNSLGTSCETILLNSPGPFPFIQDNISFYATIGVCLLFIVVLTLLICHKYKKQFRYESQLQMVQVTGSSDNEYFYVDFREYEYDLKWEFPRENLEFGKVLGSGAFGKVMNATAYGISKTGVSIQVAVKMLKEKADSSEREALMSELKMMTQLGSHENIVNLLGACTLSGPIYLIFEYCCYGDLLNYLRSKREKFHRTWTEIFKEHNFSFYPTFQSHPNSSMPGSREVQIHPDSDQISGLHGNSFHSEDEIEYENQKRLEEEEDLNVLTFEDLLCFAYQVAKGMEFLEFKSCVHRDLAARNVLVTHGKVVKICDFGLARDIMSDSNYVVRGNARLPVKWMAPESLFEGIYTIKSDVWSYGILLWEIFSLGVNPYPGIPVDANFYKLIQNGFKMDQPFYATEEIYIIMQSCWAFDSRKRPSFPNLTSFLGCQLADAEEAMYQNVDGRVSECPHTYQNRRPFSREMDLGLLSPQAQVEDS
Experimental: (§1) Reaction Biology Corp. Kinase HotSpot SM service (www.reactionbiology.com) was used to determine IC50 values for all compounds and kinase profiles. The analysis protocol was as follows: In a final reaction volume of 25 μL, a peptide substrate, [[sequence]], 5 μM, ATP 10 μM, and FLT3(h) (5 to 10 mU) were incubated with 25 mM Tris pH 7.5, 0.02 mM EGTA, 0.66 mg/mL myelin basic protein, 10 mM Mg acetate and [γ-33P-ATP] (a concentration of approximately 500 cpm/pmol was required for specific activity). The reaction was initiated by adding the Mg-ATP mixture. After incubation at room temperature for 40 minutes, the reaction was stopped by adding 5 μL of a 3% phosphoric acid solution. Thereafter, 10 μL of the reactant was spotted on a P30 filter mat and washed three times for 5 minutes in 75 mM phosphoric acid and once in methanol before drying and scintillation counting.

FLT3 (D835Y) = target: T2, FLT3 (D835Y) (Homo sapiens, UniProt P36888, D835Y); assay: as above
T2 sequence (P36888 27-993 D835Y): T1 sequence (P36888 27-993) with D809Y
Experimental: as §1

[1] = read-out: FLT3 (D835Y) IC50, Table 1

melting point [°C] | IC50 (FLT3 wild type) [nM] | IC50 (FLT3 (D835Y); [1]) [nM] | IC50 (FLT3 (D835Y)) [nM] | SMILES
160 to 161 | 154 | 44 |  | CN1CCN(c2ccc(C(=O)Nc3ccc4[nH]c(-c5ccc6cn[nH]c6c5)nc4c3)cc2C(F)(F)F)CC1 [Compound 8e, N-(2-(1H-indazol-6-yl)-1H-benzo[di]imidazol-5-yl)-4-(4-methylpiperazin-1-yl)-3-(trifluoromethyl)benzamide]
221 to 223 | 841 | 120 |  | CCN(CC)C1CCN(c2cc(C(=O)Nc3ccc4[nH]c(-c5ccc6cn[nH]c6c5)nc4c3)cc(C(F)(F)F)c2)C1 (stereo not drawn) [Compound 8o, N-(2-(1H-indazol-6-yl)-1H-benzo[di]imidazol-5-yl)-3-(3-(diethylamino)pyrrolidin-1-yl)-5-(trifluoromethyl)benzamide]
255 to 257 | 145 | 42 |  | CCN1CCN(Cc2cc(C(=O)Nc3ccc4[nH]c(-c5ccc6cn[nH]c6c5)nc4c3)cc(C(F)(F)F)c2)CC1(C)C [Compound 8y, N-(2-(1H-indazol-6-yl)-1H-benzo[di]imidazol-5-yl)-3-((4-ethyl-3,3-dimethylpiperazine-1-yl)methyl)-5-(trifluoromethyl)benzamide]
144 to 146 | 3080 |  | ~1000 | O=C(Nc1ccc(Cl)c(Cl)c1)Nc1ccc2[nH]c(-c3ccc4cn[nH]c4c3)nc2c1 [Compound 8m, 1-(2-(1H-indazol-6-yl)-1H-benzo[di]imidazol-5-yl)-3-(3,4-dichlorophenyl)urea]
